Laboratory results: patent publication US5102891A, “1-(substituted pyridinylamino)-1H-indol-5-yl substituted carbamates” (priority 1990, dated 1992)
Where two headings read alike, the source gives them in different places.

Key:
[1] = system: Scopolamine Induced Memory Deficit; type: in vivo, mice
Procedure: In this assay mice are tested for their ability to remember an unpleasant stimulus for a period of 24 hours. A mouse is placed in a chamber that contains a dark compartment; a strong incandescent light drives it to the dark compartment, where an electric shock is administered through metal plates on the floor. The animal is removed from the testing apparatus and tested again, 24 hours later, for the ability to remember the electric shock.
If scopolamine, an anticholinergic that is known to cause memory impairment, is administered before an animal's initial exposure to the test chamber, the animal re-enters the dark compartment shortly after being placed in the test chamber 24 hours later. This effect of scopolamine is blocked by an active test compound, resulting in a greater interval before re-entry into the dark compartment.
The results for an active compound are expressed as the percent of a group of animals in which the effect of scopolamine is blocked, as manifested by an increased interval between being placed in the test chamber and re-entering the dark compartment.

[2] = molecular target: T1, Acetylcholinesterase (AChE) (Rattus norvegicus, UniProt P37136); experiment: biochemical; details: rat striatum homogenate, 10 min preincubation at 37° C., pH 7.2, acetylthiocholine 5 mM final; read-out: Inhibitory Concentration Brain AChE
T1 construct: corpora striata dissected free, weighed and homogenized in 19 volumes; from tissue; host or cells: corpora striata of male Wistar rats, whole homogenate
T1 sequence (P37136 32-614): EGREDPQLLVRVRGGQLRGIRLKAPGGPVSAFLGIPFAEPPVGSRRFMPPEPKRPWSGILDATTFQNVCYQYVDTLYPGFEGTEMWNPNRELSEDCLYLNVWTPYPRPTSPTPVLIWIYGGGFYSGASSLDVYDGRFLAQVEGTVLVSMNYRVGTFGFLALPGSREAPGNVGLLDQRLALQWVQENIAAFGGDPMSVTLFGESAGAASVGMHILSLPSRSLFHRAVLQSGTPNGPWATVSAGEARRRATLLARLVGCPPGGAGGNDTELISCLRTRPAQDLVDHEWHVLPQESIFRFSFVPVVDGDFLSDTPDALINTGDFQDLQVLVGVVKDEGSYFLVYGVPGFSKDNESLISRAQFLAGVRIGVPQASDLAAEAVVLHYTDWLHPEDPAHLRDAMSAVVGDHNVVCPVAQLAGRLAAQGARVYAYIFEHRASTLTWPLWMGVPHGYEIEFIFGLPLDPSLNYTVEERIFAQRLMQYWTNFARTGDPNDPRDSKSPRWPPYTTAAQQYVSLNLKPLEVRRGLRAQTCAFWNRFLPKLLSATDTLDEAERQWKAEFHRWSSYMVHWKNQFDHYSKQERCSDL
Procedure: Cholinesterases are found throughout the body, both in the brain and in serum. However, only brain acetylcholinesterase (AChE) distribution is correlated with central cholinergic innervation.
The method described below was used in this invention for assaying cholinesterase activity.
1. 0.05M Phosphate buffer, pH 7.2
(c) add (a) to (b) until pH reaches 7.2
4. A 2 mM stock solution of the test drug is made up in a suitable solvent and q.s. to volume with 0.5 mM DTNB (reagent 3). Drugs are serially diluted (1:10) such that the final concentration (in cuvette) is 10^-4 M and screened for activity. If active, IC50 values are determined from the inhibitory activity of subsequent concentrations.
Male Wistar rats are decapitated, brains rapidly removed, corpora striata dissected free, weighed and homogenized in 19 volumes (approximately 7 mg protein/ml) of 0.05M phosphate buffer, pH 7.2 using a Potter-Elvehjem homogenizer. […]
Enzyme activity is measured with the Beckman DU-50 spectrophotometer. […]
Blank values are determined for each run to control for non-enzymatic hydrolysis of substrate and these values are automatically subtracted by the kindata program available on kinetics soft-pac module. This program also calculates the rate of absorbance change for each cuvette. […]

Nc1c2c(nc3ccccc13)CCCC2 [Tacrine]
% of Animals with Scopolamine Induced Memory Deficit Reversal ([1]; mouse, in vivo, sc, 0.63 mg/kg): 13%

CC[C@@H]1C(=O)OC[C@@H]1Cc1cncn1C [Pilocarpine]
% of Animals with Scopolamine Induced Memory Deficit Reversal ([1]; mice, 5.0 mg/kg of body weight, s.c., retest 24 hours): 13%

CCCN(c1ccncc1)n1ccc2cc(OC(=O)N[C@@H](C)c3ccccc3)ccc21 [(S)-(-)-1-(Propyl-4-pyridinylamino)-1H-indol-5-yl 1-phenylethylcarbamate]
IC50 [2]: 30.2 µM

CCCN(c1ccncc1)n1ccc2cc(OC(=O)NC)ccc21 [1-(Propyl-4-pyridinylamino)-1H-indol-5-yl methylcarbamate]
% of Animals with Scopolamine Induced Memory Deficit Reversal ([1]; mice, 0.35 mg/kg of body weight, s.c., retest 24 hours): 21% | IC50 [2]: 0.0023 µM
